Measurements from patent US6933317B2, “PGD2 receptor antagonistic pharmaceutical compositions” (Shionogi & Co. Ltd., priority 2000, dated 2005).

Assays:
[1] = molecular target: T1, PGD2 receptor (Homo sapiens, UniProt Q13258); experiment: Antagonistic activity against PGD2 receptor using human platelet (inhibition of PGD2-induced cAMP increase); assay type: cell-based; conditions: 0.1 μM PGD2, cAMP by radioimmunoassay, read-out: Inhibitory activity for the increase of cAMP caused by PGD2 in human platelet IC50
T1 construct: Peripheral blood was collected from a healthy volunteer; endogenous in cells; host or cells: washed human platelets from peripheral blood of a healthy volunteer
T1 sequence (Q13258 1-359): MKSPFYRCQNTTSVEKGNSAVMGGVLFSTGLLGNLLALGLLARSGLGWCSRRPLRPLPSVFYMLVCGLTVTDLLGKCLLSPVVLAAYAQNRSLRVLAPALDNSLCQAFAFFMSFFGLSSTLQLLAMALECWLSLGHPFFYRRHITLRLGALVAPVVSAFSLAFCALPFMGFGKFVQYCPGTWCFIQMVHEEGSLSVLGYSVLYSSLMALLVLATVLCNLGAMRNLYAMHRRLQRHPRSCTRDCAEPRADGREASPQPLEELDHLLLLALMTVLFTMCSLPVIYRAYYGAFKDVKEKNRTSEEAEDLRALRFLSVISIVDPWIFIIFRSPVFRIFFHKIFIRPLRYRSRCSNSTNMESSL
Procedure: Experiment 2 Evaluation of Antagonistic Activity Against PGD2 Receptor Using Human Platelet
Peripheral blood was collected from a healthy volunteer using a syringe in which 1/9 volume of a citric acid/dextrose solution was previously added. The sample was subjected to centrifugation at 1200 rpm for 10 min to obtain the supernatant (PRP: platelet rich plasma). The resultant PRP was washed 3 times with a washing buffer and the number of platelets was counted with a micro cell counter. A suspension adjusted to contain the platelets at a final concentration of 5×10^8/ml was warmed at 37° C., then subjected to the pre-treatment with 3-isobutyl-1-methylxanthine (0.5 mM) for 5 min. To the suspension was added a test compound diluted at various concentration, and 10 minutes later, 0.1 μM PGD2 was added to induce the reaction 2 minutes later, hydrochloric acid was added to terminate the reaction. The platelet was destroyed with an ultrasonic homogenizer. After centrifugation, the cAMP in the supernatant was determined by radioimmunoassay.

[2] = Change of plasma concentration of drug in rat (half life of the disappearance after intravenous administration); assay type: in vivo; conditions: Jcl-SD male rats, 0.5 to 2 mg/kg, plasma concentration of unchanged compound
Procedure: Experiment 3 Change of Plasma Concentration of Drug in Rat
Compound (0.5 to 2 mg/kg) was administered intravenously to Jcl-SD male rats. The concentration of the unchanged compound was measured at 2, 5, 15, 30, 60, 120, and 240 min after the administration by the use of HPLC (determination limit; 0.05 μg/ml) and LC/MS/MS (determination limit; 0.001 μg/ml) and the half life of the disappearance was calculated. [drawing 387]

[3] = molecular target: T1, PGD2 receptor; experiment: Binding activity to PGD2 receptor (human platelet membrane fraction, [3H]PGD2); conditions: 5 nM [3H]PGD2, 4° C., 90 min
Procedure: Experiment 1 Binding Activity to PGD2 Receptor
(1) Preparation of Human Platelet Membrane Fraction
Blood was collected using a plastic syringe containing 3.8% sodium citrate from the vein of healthy volunteers (adult male and female), then put into a plastic test tube and mixed by slow-reversion. The sample was then centrifuged at 1800 rpm, for 10 min at room temperature, and the supernatant containing PRP (platelet-rich plasma) was collected. The PRP was re-centrifuged at 2300 rpm, for 22 min at room temperature to obtain platelets. The platelets were homogenized using a homogenizer (Ultra-Turrax) followed by centrifugation 3 times at 20,000 rpm, 10 min at 4° C. to obtain a platelet membrane fraction. After protein determination, the membrane fraction was adjusted to 2 mg/ml and preserved in a refrigerator at −80° C. until using for the binding test.
(2) Binding to PGD2 Receptor
To a binding-reaction solution (50 mM Tris/HCl, pH 7.4, 5 mM MgCl2) (0.2 ml) were added the human platelet membrane fraction (0.1 mg) and 5 nM [^3H]PGD2 (115 Ci/mmol), and the mixture was reacted at 4° C. for 90 min. After the reaction, the mixture was filtered through a glass fiber filter paper and washed several times with cooled physiological saline, then the radioactivity retained on the filter paper was measured. The specific-binding ratio was calculated by subtracting the non-specific binding ratio which is the radioactivity similarly measured in the presence of 10 μM PGD2 from the total binding. The inhibitory activity of each compound was expressed as the concentration required for 50% inhibition (IC50), which was determined by depicting a substitution curve by plotting the binding ratio (%) in the presence of each compound, where the binding ratio in the absence of a test compound is 100%.

| Structure (SMILES) | IC50 [1] [nM] | melting point [°C] | half-life [2] [min] | IC50 [3] [nM] |
| --- | --- | --- | --- | --- |
| CC1(C)[C@H]2C[C@H](CCCC/C=C/C(=O)O)[C@@H](NC(=O)c3cc4ccsc4[nH]3)[C@@H]1C2 [IIa-66] | 17 | – | – | – |
| CC1(C)[C@H]2C[C@H](CCCC/C=C/C(=O)O)[C@@H](NC(=O)c3coc4cc(F)ccc34)[C@@H]1C2 [IIa-54] | 15 | – | – | – |
| CC1(C)[C@H]2C[C@H](CCCCOCC(=O)O)[C@@H](NC(=O)c3coc4ccc(O)cc34)[C@@H]1C2 [IIc-52] | 8.2 | – | 23.4 | 3.5 |
| CC1(C)[C@H]2C[C@H](CCCCOCC(=O)O)[C@@H](NC(=O)c3csc4ccc(F)cc34)[C@@H]1C2 [IIc-28] | 13 | 144 to 146 | – | – |
| Cc1cc(O)cc2c(C(=O)N[C@@H]3[C@@H](CCCCOCC(=O)O)C[C@H]4C[C@@H]3C4(C)C)coc12 [IIc-81] | 8 | – | – | – |
| CC1(C)[C@H]2C[C@H](CCCC/C=C/C(=O)O)[C@@H](NC(=O)c3csc4ccccc34)[C@@H]1C2 [IIa-17] | 15 | – | – | – |
| CC1(C)[C@H]2C[C@H](CCCC/C=C/C(=O)O)[C@@H](NC(=O)c3csc4ccc(F)cc34)[C@@H]1C2 [IIa-28] | 16 | – | – | – |
| CC1(C)[C@H]2C[C@H](CCCC/C=C/C(=O)O)[C@@H](NC(=O)c3coc4ccc(O)cc34)[C@@H]1C2 [IIa-52] | 3.7 | 159 to 160 | 16.7 | – |
| Cc1ccc2scc(C(=O)N[C@@H]3[C@@H](CCCCOCC(=O)O)C[C@H]4C[C@@H]3C4(C)C)c2c1 [IIc-20] | 15 | 87 to 90 | – | – |
| CC1(C)[C@H]2C[C@H](CCCC/C=C/C(=O)O)[C@@H](NC(=O)c3cccc4ccsc34)[C@@H]1C2 [IIa-34] | 14 | 141 to 142 | 34.6 | – |
| CC1(C)[C@H]2C[C@H](CCCCOCC(=O)O)[C@@H](NC(=O)c3csc4ccc(NC(N)=O)cc34)[C@@H]1C2 [IIc-86] | 8 | – | – | – |
| CC1(C)[C@H]2C[C@H](CCCCOCC(=O)O)[C@@H](NC(=O)c3csc4ccc(C(N)=O)cc34)[C@@H]1C2 [IIc-99] | 6 | 164 to 166 | – | – |
| CC1(C)[C@H]2C[C@H](CCCCOCC(=O)O)[C@@H](NC(=O)c3csc4ccccc34)[C@@H]1C2 [IIc-17] | 5.4 | 125 to 126 | – | – |
| CC1(C)[C@H]2C[C@H](CCCCOCC(=O)O)[C@@H](NC(=O)c3cccc4ccsc34)[C@@H]1C2 [IIc-34] | 11 | 95 to 96 | 66.7 | – |
| CC1(C)[C@H]2C[C@H](CCCC/C=C/C(=O)O)[C@@H](NC(=O)c3ccsc3)[C@@H]1C2 [IIa-4] | 19 | – | 21.6 | – |
| CC1(C)[C@H]2C[C@H](CCCCOCC(=O)O)[C@@H](NC(=O)c3csc4ccc(CNS(C)(=O)=O)cc34)[C@@H]1C2 [IIc-96] | 17 | – | – | – |
| CC1(C)[C@H]2C[C@H](CCCC/C=C/C(=O)O)[C@@H](NC(=O)c3csc4cc(O)ccc34)[C@@H]1C2 [IIa-22] | 3.7 | – | – | – |
| CC1(C)[C@H]2C[C@H](CCCCOCC(=O)O)[C@@H](NC(=O)c3csc4cc(O)ccc34)[C@@H]1C2 [IIc-22] | 4.6 | – | – | – |
| CC1(C)[C@H]2C[C@H](CCCCOCC(=O)O)[C@@H](NC(=O)c3csc4ccc(CNC(N)=O)cc34)[C@@H]1C2 [IIc-97] | 11 | – | – | – |
| CC1(C)[C@H]2C[C@H](CCCCOCC(=O)O)[C@@H](NC(=O)c3ccsc3)[C@@H]1C2 [IIc-4] | 18 | – | 44.3 | – |
| CC1(C)[C@H]2C[C@H](CCCCOCC(=O)O)[C@@H](NC(=O)c3csc4ccc(O)cc34)[C@@H]1C2 [IIc-23] | 4.9 | – | – | 9.5 |
| CC1(C)[C@H]2C[C@H](CCCCOCC(=O)O)[C@@H](NC(=O)c3csc4cccc(O)c34)[C@@H]1C2 [IIc-24] | 13 | – | – | – |
| CC1(C)[C@H]2C[C@H](CCCC/C=C/C(=O)O)[C@@H](NC(=O)c3csc4ccc(O)cc34)[C@@H]1C2 [IIa-23] | 2.5 | – | – | 33 |

Other lines, results leading:

| IC50 [1] [nM] | melting point [°C] | half-life [2] [min] | IC50 [3] [nM] | Structure (SMILES) |
| --- | --- | --- | --- | --- |
| 18 | – | – | – | COc1cc2c(C(=O)N[C@@H]3[C@@H](CCCCOCC(=O)O)C[C@H]4C[C@@H]3C4(C)C)csc2cc1F [IIc-129] |
| 10 | 149 to 151 | – | – | O=C(O)COCCCC[C@H]1[C@@H]2CC[C@@H](C2)[C@@H]1NC(=O)c1csc2ccc(O)cc12 [Ic-23] |
| – | – | 8.7 | – | CC1(C)[C@H]2C[C@H](C/C=C\CCCC(=O)O)[C@@H](NC(=O)c3coc4ccc(O)cc34)[C@@H]1C2 [Reference compound 3] |
| 5 | – | – | – | CC1(C)[C@H]2C[C@H](CCCCOCC(=O)O)[C@@H](NC(=O)c3csc4cc(F)c(O)cc34)[C@@H]1C2 [IIc-128] |
| 10 | 76 to 79 | – | – | O=C(O)COCCCC[C@H]1[C@@H]2CC[C@@H](C2)[C@@H]1NC(=O)c1csc2cc(O)ccc12 [Ic-22] |
| 19 | 143 to 144 | – | – | CC1(C)[C@H]2C[C@H](CCCCSCC(=O)O)[C@@H](NC(=O)c3cccc4ccsc34)[C@@H]1C2 [IIe-34] |
| 10 | – | – | 74 | O=C(O)COCCCC[C@H]1[C@@H]2CC[C@@H](C2)[C@@H]1NC(=O)c1coc2ccc(O)cc12 [Ic-52] |
| 20 | – | – | – | CCOC(=O)Nc1ccc2scc(C(=O)N[C@@H]3[C@@H](CCCCC(=O)O)C[C@H]4C[C@@H]3C4(C)C)c2c1 [IIf-84] |
| 5.7 | – | – | – | CC1(C)[C@H]2C[C@H](CCCCSCC(=O)O)[C@@H](NC(=O)c3csc4cccc(O)c34)[C@@H]1C2 [IIe-24] |
| 3 | – | – | – | CC1(C)[C@H]2C[C@H](CCCCOCC(=O)O)[C@@H](NC(=O)c3coc4ccc(NC(N)=O)cc34)[C@@H]1C2 [IIc-135] |
| 17 | 129 to 131 | – | – | Cc1ccc2scc(C(=O)N[C@H]3[C@H]4CC[C@H](C4)[C@@H]3CCCC/C=C/C(=O)O)c2c1 [Ia-20] |
| – | – | 8 | – | CC1(C)[C@H]2C[C@H](C/C=C\CCCC(=O)O)[C@@H](NC(=O)c3ccsc3)[C@@H]1C2 [Reference compound 1, reference compound] |
| – | – | 17 | – | CC1(C)[C@H]2C[C@H](C/C=C\CCCC(=O)O)[C@@H](NC(=O)c3cccc4ccsc34)[C@@H]1C2 [Reference compound 2, reference compound] |
| 17 | 197 to 199 | – | – | CC1(C)[C@H]2C[C@H](CCCCSCC(=O)O)[C@@H](NC(=O)c3csc4ccc(F)cc34)[C@@H]1C2 [IIe-28] |
| 4.8 | – | – | – | CC1(C)[C@H]2C[C@H](CCCCSCC(=O)O)[C@@H](NC(=O)c3csc4cc(O)ccc34)[C@@H]1C2 [IIe-22] |
| 11 | 155 to 157 | – | – | O=C(O)/C=C/CCCC[C@H]1[C@@H]2CC[C@@H](C2)[C@@H]1NC(=O)c1csc2ccccc12 [Ia-17] |
| 18 | – | – | – | O=C(O)/C=C/CCCC[C@H]1[C@@H]2CC[C@@H](C2)[C@@H]1NC(=O)c1cc2sccc2[nH]1 [Ia-65] |
